Source: patent publication US20080114007A1 (priority 2006, published 2008)
pIC50: −log10 of the molar value.

target: CSF-1R (Homo sapiens, UniProt P07333); assay: Peptide (non-phosphorylated) assay, fluorescence polarization competition immunoassay; format: biochemical; settings: 0.7 nM CSF-1R, 308 μM SYEGNSYTFIDPTQ peptide, 1 mM ATP, 80 min; mean of at least three determinations; read-out: c-fms Peptide IC50
How it was run: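 Human CSF-1R kinase reaction started with ATP and run 80 min at room temperature, then stopped with EDTA. Phosphopeptide detected by fluorescence polarization competition using anti-phosphotyrosine antibody and PTK green tracer after 30 min. Controls used 4% DMSO, with EDTA added before reaction start for positive controls.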

CSF-1R, sequence (P07333 20-972): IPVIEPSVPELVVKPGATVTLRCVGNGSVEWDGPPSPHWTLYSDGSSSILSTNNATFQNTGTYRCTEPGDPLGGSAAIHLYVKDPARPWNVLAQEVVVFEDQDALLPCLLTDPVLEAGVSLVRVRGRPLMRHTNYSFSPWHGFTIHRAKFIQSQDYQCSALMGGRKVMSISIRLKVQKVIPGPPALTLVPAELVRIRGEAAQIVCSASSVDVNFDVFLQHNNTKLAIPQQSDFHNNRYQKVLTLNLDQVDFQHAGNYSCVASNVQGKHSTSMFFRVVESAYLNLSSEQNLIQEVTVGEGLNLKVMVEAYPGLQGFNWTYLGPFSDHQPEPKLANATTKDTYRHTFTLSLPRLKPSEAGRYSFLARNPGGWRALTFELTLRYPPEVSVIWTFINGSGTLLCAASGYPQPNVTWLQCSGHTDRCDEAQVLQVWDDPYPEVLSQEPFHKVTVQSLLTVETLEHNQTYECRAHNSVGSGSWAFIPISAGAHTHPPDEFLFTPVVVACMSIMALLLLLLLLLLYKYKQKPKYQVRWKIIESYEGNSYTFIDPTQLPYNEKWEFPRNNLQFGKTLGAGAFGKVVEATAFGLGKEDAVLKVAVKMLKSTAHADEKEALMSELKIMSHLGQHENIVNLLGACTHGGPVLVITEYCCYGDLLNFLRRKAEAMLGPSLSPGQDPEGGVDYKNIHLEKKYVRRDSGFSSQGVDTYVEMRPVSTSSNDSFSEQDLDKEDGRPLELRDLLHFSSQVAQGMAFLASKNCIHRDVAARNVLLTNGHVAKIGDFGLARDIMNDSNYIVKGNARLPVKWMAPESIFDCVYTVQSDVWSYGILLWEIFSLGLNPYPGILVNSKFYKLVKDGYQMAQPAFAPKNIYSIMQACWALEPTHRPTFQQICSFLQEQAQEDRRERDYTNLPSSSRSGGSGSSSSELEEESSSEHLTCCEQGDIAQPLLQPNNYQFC

Row | pIC50 | Compound
1 | 8.52 | COCCc1ccc(Nc2ncc3c(=O)c(C(=O)NOC)cn(-c4ccc5c(c4)CCC5)c3n2)cc1 [Cpd 81, 8-indan-5-yl-2-[4-(2-methoxy-ethyl)-phenylamino]-5-oxo-5,8-dihydro-pyrido[2,3-d]pyrimidine-6-carboxylic acid methoxy-amide]
2 | 8.44 | CONC(=O)c1cn(-c2ccc3c(c2)CCC3)c2nc(Nc3ccc(CCNS(C)(=O)=O)cc3)ncc2c1=O [Cpd 82, 8-indan-5-yl-2-[4-(2-methanesulfonylamino-ethyl)-phenylamino]-5-oxo-5,8-dihydro-pyrido[2,3-d]pyrimidine-6-carboxylic acid methoxy-amide]
3 | 9.00 | CONC(=O)c1cn(-c2ccc3c(c2)CCC3)c2nc(Nc3ccc(CCN4CCC(=O)CC4)cc3)ncc2c1=O [Cpd 83, 8-indan-5-yl-5-oxo-2-{4-[2-(4-oxo-piperidin-1-yl)-ethyl]-phenylamino}-5,8-dihydro-pyrido[2,3-d]pyrimidine-6-carboxylic acid methoxy-amide]
4 | 8.70 | CONC(=O)c1cn(-c2ccc3c(c2)CCC3)c2nc(Nc3ccc(C4CCN(CCC(=O)O)CC4)cc3)ncc2c1=O [Cpd 84, 3-{4-[4-(8-indan-5-yl-6-methoxycarbamoyl-5-oxo-5,8-dihydro-pyrido[2,3-d]pyrimidin-2-ylamino)-phenyl]-piperidin-1-yl}-propionic acid]
5 | 8.66 | CONC(=O)c1cn(-c2ccc3c(c2)CCC3)c2nc(Nc3ccc(C4CCN(CC(=O)O)CC4)cc3)ncc2c1=O [Cpd 85, {4-[4-(8-indan-5-yl-6-methoxycarbamoyl-5-oxo-5,8-dihydro-pyrido[2,3-d]pyrimidin-2-ylamino)-phenyl]-piperidin-1-yl}-acetic acid]
6 | 8.74 | CCOC(=O)CN1CCC(c2ccc(Nc3ncc4c(=O)c(C(=O)NOC)cn(-c5ccc6c(c5)CCC6)c4n3)cc2)CC1 [Cpd 86, {4-[4-(8-indan-5-yl-6-methoxycarbamoyl-5-oxo-5,8-dihydro-pyrido[2,3-d]pyrimidin-2-ylamino)-phenyl]-piperidin-1-yl}-acetic acid ethyl ester]
7 | 8.62 | CONC(=O)c1cn(-c2ccc3c(c2)CCC3)c2nc(Nc3ccc(C4CCN(CC(=O)NS(C)(=O)=O)CC4)cc3)ncc2c1=O [Cpd 87, 8-indan-5-yl-2-{4-[1-(2-methanesulfonylamino-2-oxo-ethyl)-piperidin-4-yl]-phenylamino}-5-oxo-5,8-dihydro-pyrido[2,3-d]pyrimidine-6-carboxylic acid methoxy-amide]
8 | 8.89 | CONC(=O)c1cn(-c2ccc3c(c2)CCC3)c2nc(Nc3ccc(C4CCN(CCO)CC4)cc3)ncc2c1=O [Cpd 88, 2-{4-[1-(2-hydroxy-ethyl)-piperidin-4-yl]-phenylamino}-8-indan-5-yl-5-oxo-5,8-dihydro-pyrido[2,3-d]pyrimidine-6-carboxylic acid methoxy-amide]
9 | 8.85 | CNS(=O)(=O)CCc1ccc(Nc2ncc3c(=O)c(C(=O)NOC)cn(-c4ccc5c(c4)CCC5)c3n2)cc1 [Cpd 89, 8-indan-5-yl-2-[4-(2-methylsulfamoyl-ethyl)-phenylamino]-5-oxo-5,8-dihydro-pyrido[2,3-d]pyrimidine-6-carboxylic acid methoxy-amide]
10 | 8.70 | CONC(=O)c1cn(-c2ccc3c(c2)CCC3)c2nc(Nc3ccc(Cc4nnn[nH]4)cc3)ncc2c1=O [Cpd 91, 8-indan-5-yl-5-oxo-2-[4-(1H-tetrazol-5-ylmethyl)-phenylamino]-5,8-dihydro-pyrido[2,3-d]pyrimidine-6-carboxylic acid methoxy-amide]
11 | 8.31 | CCc1ccc(-n2cc(C(=O)NOC3CCCC3)c(=O)c3cnc(Nc4ccc(CCN5CCN(C)CC5)cc4)nc32)cc1 [Cpd 92, 8-(4-ethyl-phenyl)-2-{4-[2-(4-methyl-piperazin-1-yl)-ethyl]-phenylamino}-5-oxo-5,8-dihydro-pyrido[2,3-d]pyrimidine-6-carboxylic acid cyclopentyloxy-amide]
12 | 8.31 | CCc1ccc(-n2cc(C(=O)NOC(CC)CC)c(=O)c3cnc(Nc4ccc(CCN5CCN(C)CC5)cc4)nc32)cc1 [Cpd 93, 8-(4-ethyl-phenyl)-2-{4-[2-(4-methyl-piperazin-1-yl)-ethyl]-phenylamino}-5-oxo-5,8-dihydro-pyrido[2,3-d]pyrimidine-6-carboxylic acid (1-ethyl-propoxy)-amide]
13 | 9.05 | CCc1ccc(-n2cc(C(=O)NOC)c(=O)c3cnc(Nc4ccc(C5CCN(CC(=O)O)CC5)cc4)nc32)cc1 [Cpd 94, (4-{4-[8-(4-ethyl-phenyl)-6-methoxycarbamoyl-5-oxo-5,8-dihydro-pyrido[2,3-d]pyrimidin-2-ylamino]-phenyl}-piperidin-1-yl)-acetic acid]
14 | 8.74 | CCc1ccc(-n2cc(C(=O)NOC)c(=O)c3cnc(Nc4ccc(C5CCN(CCO)CC5)cc4)nc32)cc1 [Cpd 95, 8-(4-ethyl-phenyl)-2-{4-[1-(2-hydroxy-ethyl)-piperidin-4-yl]-phenylamino}-5-oxo-5,8-dihydro-pyrido[2,3-d]pyrimidine-6-carboxylic acid methoxy-amide]
15 | 9.05 | CCc1ccc(-n2cc(C(=O)NOC)c(=O)c3cnc(Nc4ccc(C5CCN(CCS(C)(=O)=O)CC5)cc4)nc32)cc1 [Cpd 96, 8-(4-ethyl-phenyl)-2-{4-[1-(2-methanesulfonyl-ethyl)-piperidin-4-yl]-phenylamino}-5-oxo-5,8-dihydro-pyrido[2,3-d]pyrimidine-6-carboxylic acid methoxy-amide]
16 | 9.20 | CONC(=O)c1cn(-c2ccc3c(c2)CCC3)c2nc(Nc3ccc(CCNCCO)cc3)ncc2c1=O [Cpd 97, 2-{4-[2-(2-hydroxy-ethylamino)-ethyl]-phenylamino}-8-indan-5-yl-5-oxo-5,8-dihydro-pyrido[2,3-d]pyrimidine-6-carboxylic acid methoxy-amide]
17 | 8.85 | COCCNCCc1ccc(Nc2ncc3c(=O)c(C(=O)NOC)cn(-c4ccc5c(c4)CCC5)c3n2)cc1 [Cpd 98, 8-indan-5-yl-2-{4-[2-(2-methoxy-ethylamino)-ethyl]-phenylamino}-5-oxo-5,8-dihydro-pyrido[2,3-d]pyrimidine-6-carboxylic acid methoxy-amide]
18 | 9.05 | CONC(=O)c1cn(-c2ccc3c(c2)CCC3)c2nc(Nc3ccc(CCNCCS(C)(=O)=O)cc3)ncc2c1=O [Cpd 99, 8-indan-5-yl-2-{4-[2-(2-methanesulfonyl-ethylamino)-ethyl]-phenylamino}-5-oxo-5,8-dihydro-pyrido[2,3-d]pyrimidine-6-carboxylic acid methoxy-amide]

same assay, conditions: c-fms Peptide IC50, 0.7 nM CSF-1R, 308 μM SYEGNSYTFIDPTQ peptide, 1 mM ATP, 80 min; mean of at least three determinations

Row | pIC50 | Compound
19 | 8.89 | CONC(=O)c1cn(-c2ccc3c(c2)CCC3)c2nc(Nc3ccc(CCN4CCOCC4)cc3)ncc2c1=O [Cpd 80, 8-indan-5-yl-2-[4-(2-morpholin-4-yl-ethyl)-phenylamino]-5-oxo-5,8-dihydro-pyrido[2,3-d]pyrimidine-6-carboxylic acid methoxy-amide]
20 | 8.62 | CONC(=O)c1cn(-c2ccc3c(c2)CCC3)c2nc(Nc3ccc(CCS(=O)(=O)NC(C)=O)cc3)ncc2c1=O [Cpd 90, 2-[4-(2-acetylsulfamoyl-ethyl)-phenylamino]-8-indan-5-yl-5-oxo-5,8-dihydro-pyrido[2,3-d]pyrimidine-6-carboxylic acid methoxy-amide]
